# Read-outs that look alike come from different tables or passages of the source.
# Tests used:
# Pseudomonas pseudomallei = test: microbe, parasite or virus in culture; type: cell-based
# Proteus rettgeri = test: Checkerboard broth dilution synergy study (mic); type: cell-based; details: for MIC: Providencia rettgeri, read-out: mic, drug alone
# Pseudomonas aeruginosa = test: Checkerboard broth dilution synergy study (mic); type: cell-based; details: for MIC: Pseudomonas aeruginosa, read-out: mic, drug alone
# clinical = details: in vivo, iv, mean serum concentration
# Proteus vulgaris = test: Checkerboard broth dilution synergy study (mic); type: cell-based; details: Table II; for MIC: Proteus vulgaris, read-out: mic, drug alone
# Pseudomonas maltophilia = test: Checkerboard broth dilution synergy study (mic); type: cell-based; details: for MIC: Stenotrophomonas maltophilia, read-out: mic, drug alone
# Klebsiella pneumoniae = test: Checkerboard broth dilution synergy study (mic); type: cell-based; details: for MIC: Klebsiella pneumoniae, read-out: mic, drug alone
# Proteus mirabilis = test: Checkerboard broth dilution synergy study (mic); type: cell-based; details: Table II, strain Allen
# E. coli = test: Checkerboard broth dilution synergy study (mic); type: cell-based; details: Table II; for MIC: Escherichia coli, read-out: mic, drug alone
# Acinetobacter sp. = test: Checkerboard broth dilution synergy study (mic); type: cell-based; details: for MIC: Acinetobacter, read-out: mic, drug alone
# E. cloacae = test: Checkerboard broth dilution synergy study (mic); type: cell-based; details: for MIC: Enterobacter cloacae, read-out: mic, drug alone
smiles,measurement,setting,value
"COC1(NC(=O)C(C(=O)O)c2ccc(O)cc2)C(=O)N2C(C(=O)O)=C(CSc3nnnn3C)COC21 (centres unmarked) [1-oxa compound I, moxalactam]",MIC,"Pseudomonas pseudomallei; Burkholderia pseudomallei, read-out: mic, drug alone",32 µg/mL
same,mic of each drug in combination I + A,"Pseudomonas pseudomallei; Table III, isolate not named",4 µg/mL
same,MIC,"Proteus rettgeri; Table II, strain 65",0.25 µg/mL
same,MIC,"Proteus rettgeri; Table III, isolate 53",0.25 µg/mL
same,MIC,"Proteus rettgeri; Table III, isolate 136-1",0.25 µg/mL
same,MIC,"Proteus rettgeri; Table III, isolate 768",0.5 µg/mL
same,MIC,"Proteus rettgeri; Table III, isolate 997",0.4 µg/mL
same,MIC,"Proteus rettgeri; Table III, isolate 1422",2 µg/mL
same,mic of each drug in combination I + T,"Proteus rettgeri; Table II, strain 65",0.12 µg/mL
same,mic of each drug in combination I + A,"Proteus rettgeri; Table III, isolate 53",< 0.06 µg/mL
same,mic of each drug in combination I + A,"Proteus rettgeri; Table III, isolate 136-1",0.12 µg/mL
same,mic of each drug in combination I + A,"Proteus rettgeri; Table III, isolate 768",< 0.06 µg/mL
same,mic of each drug in combination I + A,"Proteus rettgeri; Table III, isolate 997",< 0.06 µg/mL
same,mic of each drug in combination I + A,"Proteus rettgeri; Table III, isolate 1422",2 µg/mL
same,MIC,"Pseudomonas aeruginosa; Table II, strain 84",16 µg/mL
same,MIC,"Pseudomonas aeruginosa; Table II, strain 366",16 µg/mL
same,MIC,"Pseudomonas aeruginosa; Table II, strain 424",8 µg/mL
same,MIC,"Pseudomonas aeruginosa; Table II, strain 447",32 µg/mL
same,MIC,"Pseudomonas aeruginosa; Table II, strain 1484",64 µg/mL
same,MIC,"Pseudomonas aeruginosa; Table II, strain Davis",> 64 µg/mL
same,MIC,"Pseudomonas aeruginosa; Table III, isolate 316-2",8 µg/mL
same,MIC,"Pseudomonas aeruginosa; Table III, isolate 362",32 µg/mL
same,MIC,"Pseudomonas aeruginosa; Table III, isolate 363",32 µg/mL
same,MIC,"Pseudomonas aeruginosa; Table III, isolate 610",> 64 µg/mL
same,MIC,"Pseudomonas aeruginosa; Table III, isolate Brownlee",32 µg/mL
same,mic of each drug in combination I + P,"Pseudomonas aeruginosa; Table II, strain 84",4 µg/mL
same,mic of each drug in combination I + T,"Pseudomonas aeruginosa; Table II, strain 84",2 µg/mL
same,mic of each drug in combination I + P,"Pseudomonas aeruginosa; Table II, strain 366",8 µg/mL
same,mic of each drug in combination I + T,"Pseudomonas aeruginosa; Table II, strain 366",0.5 µg/mL
same,mic of each drug in combination I + P,"Pseudomonas aeruginosa; Table II, strain 424",2 µg/mL
same,mic of each drug in combination I + T,"Pseudomonas aeruginosa; Table II, strain 424",2 µg/mL
same,mic of each drug in combination I + P,"Pseudomonas aeruginosa; Table II, strain 447",4 µg/mL
same,mic of each drug in combination I + T,"Pseudomonas aeruginosa; Table II, strain 447",< 0.5 µg/mL
same,mic of each drug in combination I + P,"Pseudomonas aeruginosa; Table II, strain 1484",16 µg/mL
same,mic of each drug in combination I + T,"Pseudomonas aeruginosa; Table II, strain 1484",4 µg/mL
same,mic of each drug in combination I + P,"Pseudomonas aeruginosa; Table II, strain Davis",8 µg/mL
same,mic of each drug in combination I + T,"Pseudomonas aeruginosa; Table II, strain Davis",2 µg/mL
same,mic of each drug in combination I + A,"Pseudomonas aeruginosa; Table III, isolate 316-2",4 µg/mL
same,mic of each drug in combination I + A,"Pseudomonas aeruginosa; Table III, isolate 362",4 µg/mL
same,mic of each drug in combination I + A,"Pseudomonas aeruginosa; Table III, isolate 363",1 µg/mL
same,mic of each drug in combination I + A,"Pseudomonas aeruginosa; Table III, isolate 610",0.6 µg/mL
same,mic of each drug in combination I + A,"Pseudomonas aeruginosa; Table III, isolate Brownlee",1 µg/mL
same,concentration at 11 h,clinical,1200 ng/mL
same,MIC,Proteus vulgaris; strain 363,0.12 µg/mL
same,MIC,Proteus vulgaris; strain Shide,0.06 µg/mL
same,mic of each drug in combination I + T,Proteus vulgaris; strain 363,< 0.12 µg/mL
same,mic of each drug in combination I + T,Proteus vulgaris; strain Shide,< 0.12 µg/mL
same,MIC,"Pseudomonas maltophilia; Table II, strain 10",32 µg/mL
same,MIC,"Pseudomonas maltophilia; Table II, strain 11",4 µg/mL
same,MIC,"Pseudomonas maltophilia; Table II, strain 505",8 µg/mL
same,MIC,"Pseudomonas maltophilia; Table III, isolate 10",32 µg/mL
same,MIC,"Pseudomonas maltophilia; Table III, isolate 505",8 µg/mL
same,mic of each drug in combination I + T,"Pseudomonas maltophilia; Table II, strain 10",4 µg/mL
same,mic of each drug in combination I + T,"Pseudomonas maltophilia; Table II, strain 11",0.5 µg/mL
same,mic of each drug in combination I + T,"Pseudomonas maltophilia; Table II, strain 505",0.6 µg/mL
same,mic of each drug in combination I + A,"Pseudomonas maltophilia; Table III, isolate 10",8 µg/mL
same,mic of each drug in combination I + A,"Pseudomonas maltophilia; Table III, isolate 505",2 µg/mL
same,MIC,"Klebsiella pneumoniae; Table II, strain 130",0.5 µg/mL
same,MIC,"Klebsiella pneumoniae; Table II, strain 214-1",2 µg/mL
same,MIC,"Klebsiella pneumoniae; Table II, strain 463",2 µg/mL
same,MIC,"Klebsiella pneumoniae; Table II, strain 512",0.5 µg/mL
same,MIC,"Klebsiella pneumoniae; Table II, strain 933",0.25 µg/mL
same,MIC,"Klebsiella pneumoniae; Table II, strain 1204-2",2 µg/mL
same,MIC,"Klebsiella pneumoniae; Table III, isolate 130",0.5 µg/mL
same,MIC,"Klebsiella pneumoniae; Table III, isolate 214-1",2 µg/mL
same,MIC,"Klebsiella pneumoniae; Table III, isolate 463",2 µg/mL
same,MIC,"Klebsiella pneumoniae; Table III, isolate 938",0.25 µg/mL
same,MIC,"Klebsiella pneumoniae; Table III, isolate 1231",0.5 µg/mL
same,mic of each drug in combination I + T,"Klebsiella pneumoniae; Table II, strain 130",< 0.012 µg/mL
same,mic of each drug in combination I + P,"Klebsiella pneumoniae; Table II, strain 214-1",0.5 µg/mL
same,mic of each drug in combination I + T,"Klebsiella pneumoniae; Table II, strain 214-1",0.012 µg/mL
same,mic of each drug in combination I + P,"Klebsiella pneumoniae; Table II, strain 463",2 µg/mL
same,mic of each drug in combination I + T,"Klebsiella pneumoniae; Table II, strain 463",0.012 µg/mL
same,mic of each drug in combination I + P,"Klebsiella pneumoniae; Table II, strain 512",0.5 µg/mL
same,mic of each drug in combination I + T,"Klebsiella pneumoniae; Table II, strain 512",0.012 µg/mL
same,mic of each drug in combination I + T,"Klebsiella pneumoniae; Table II, strain 933",< 0.012 µg/mL
same,mic of each drug in combination I + P,"Klebsiella pneumoniae; Table II, strain 1204-2",0.5 µg/mL
same,mic of each drug in combination I + T,"Klebsiella pneumoniae; Table II, strain 1204-2",0.012 µg/mL
same,mic of each drug in combination I + A,"Klebsiella pneumoniae; Table III, isolate 130",0.5 µg/mL
same,mic of each drug in combination I + A,"Klebsiella pneumoniae; Table III, isolate 214-1",< 0.06 µg/mL
same,mic of each drug in combination I + A,"Klebsiella pneumoniae; Table III, isolate 463",2 µg/mL
same,mic of each drug in combination I + A,"Klebsiella pneumoniae; Table III, isolate 938",< 0.06 µg/mL
same,mic of each drug in combination I + A,"Klebsiella pneumoniae; Table III, isolate 1231",0.06 µg/mL
same,MIC,"Proteus mirabilis; Proteus mirabilis, read-out: mic, drug alone",0.06 µg/mL
same,mic of each drug in combination I + T,Proteus mirabilis,< 0.12 µg/mL
same,MIC,E. coli; strain 46-2,0.03 µg/mL
same,MIC,E. coli; strain 77-3,0.03 µg/mL
same,MIC,E. coli; strain 136-3,0.06 µg/mL
same,MIC,E. coli; strain 1260,0.03 µg/mL
same,MIC,E. coli; strain 1262,0.03 µg/mL
same,MIC,E. coli; strain Briley,0.12 µg/mL
same,MIC,E. coli; strain Dill,0.25 µg/mL
same,mic of each drug in combination I + P,E. coli; strain 46-2,< 0.12 µg/mL
same,mic of each drug in combination I + T,E. coli; strain 46-2,< 0.12 µg/mL
same,mic of each drug in combination I + T,E. coli; strain 77-3,< 0.12 µg/mL
same,mic of each drug in combination I + T,E. coli; strain 136-3,< 0.12 µg/mL
same,mic of each drug in combination I + P,E. coli; strain 1253,0.5 µg/mL
same,mic of each drug in combination I + T,E. coli; strain 1253,< 0.12 µg/mL
same,mic of each drug in combination I + T,E. coli; strain 1260,< 0.12 µg/mL
same,mic of each drug in combination I + P,E. coli; strain 1262,< 0.12 µg/mL
same,mic of each drug in combination I + T,E. coli; strain 1262,< 0.12 µg/mL
same,mic of each drug in combination I + P,E. coli; strain 1415,< 0.12 µg/mL
same,mic of each drug in combination I + T,E. coli; strain 1415,< 0.12 µg/mL
same,mic of each drug in combination I + P,E. coli; strain Briley,< 0.12 µg/mL
same,mic of each drug in combination I + T,E. coli; strain Briley,< 0.12 µg/mL
same,mic of each drug in combination I + T,E. coli; strain Dill,< 0.12 µg/mL
same,MIC,"Acinetobacter sp.; Table II, strain 28-1",16 µg/mL
same,MIC,"Acinetobacter sp.; Table II, strain 28-2",16 µg/mL
same,MIC,"Acinetobacter sp.; Table II, strain 106",8 µg/mL
same,MIC,"Acinetobacter sp.; Table II, strain 107",32 µg/mL
same,MIC,"Acinetobacter sp.; Table II, strain 109",16 µg/mL
same,MIC,"Acinetobacter sp.; Table III, isolate 28-1",16 µg/mL
same,MIC,"Acinetobacter sp.; Table III, isolate 28-2",16 µg/mL
same,MIC,"Acinetobacter sp.; Table III, isolate 106",8 µg/mL
same,MIC,"Acinetobacter sp.; Table III, isolate 107",32 µg/mL
same,MIC,"Acinetobacter sp.; Table III, isolate 109",16 µg/mL
same,mic of each drug in combination I + T,"Acinetobacter sp.; Table II, strain 28-1",0.6 µg/mL
same,mic of each drug in combination I + T,"Acinetobacter sp.; Table II, strain 28-2",2 µg/mL
same,mic of each drug in combination I + T,"Acinetobacter sp.; Table II, strain 106",0.6 µg/mL
same,mic of each drug in combination I + T,"Acinetobacter sp.; Table II, strain 107",2 µg/mL
same,mic of each drug in combination I + T,"Acinetobacter sp.; Table II, strain 109",2 µg/mL
same,mic of each drug in combination I + A,"Acinetobacter sp.; Table III, isolate 28-1",2 µg/mL
same,mic of each drug in combination I + A,"Acinetobacter sp.; Table III, isolate 28-2",< 0.06 µg/mL
same,mic of each drug in combination I + A,"Acinetobacter sp.; Table III, isolate 106",< 0.06 µg/mL
same,mic of each drug in combination I + A,"Acinetobacter sp.; Table III, isolate 107",8 µg/mL
same,mic of each drug in combination I + A,"Acinetobacter sp.; Table III, isolate 109",8 µg/mL
same,MIC,"E. cloacae; Table II, strain 1246",0.25 µg/mL
same,MIC,"E. cloacae; Table II, strain 1253",4 µg/mL
same,MIC,"E. cloacae; Table II, strain 1415",0.12 µg/mL
same,MIC,"E. cloacae; Table II, strain B293",0.5 µg/mL
same,MIC,"E. cloacae; Table III, isolate 228",0.12 µg/mL
same,MIC,"E. cloacae; Table III, isolate 1253",4 µg/mL
same,MIC,"E. cloacae; Table III, isolate 1296",0.25 µg/mL
same,MIC,"E. cloacae; Table III, isolate 1415",0.12 µg/mL
same,MIC,"E. cloacae; Table III, isolate McQuinn",0.25 µg/mL
same,mic of each drug in combination I + T,"E. cloacae; Table II, strain 1246",< 0.12 µg/mL
same,mic of each drug in combination I + P,"E. cloacae; Table II, strain 1253",2 µg/mL
same,mic of each drug in combination I + T,"E. cloacae; Table II, strain 1253",0.25 µg/mL
same,mic of each drug in combination I + T,"E. cloacae; Table II, strain 1415",0.12 µg/mL
same,mic of each drug in combination I + P,"E. cloacae; Table II, strain B293",0.25 µg/mL
same,mic of each drug in combination I + T,"E. cloacae; Table II, strain B293",0.12 µg/mL
same,mic of each drug in combination I + A,"E. cloacae; Table III, isolate 228",< 0.06 µg/mL
same,mic of each drug in combination I + A,"E. cloacae; Table III, isolate 1253",< 0.06 µg/mL
same,mic of each drug in combination I + A,"E. cloacae; Table III, isolate 1296",0.06 µg/mL
same,mic of each drug in combination I + A,"E. cloacae; Table III, isolate 1415",0.12 µg/mL
same,mic of each drug in combination I + A,"E. cloacae; Table III, isolate McQuinn",0.12 µg/mL

# From patent US4452778A, “Synergistic antibacterial compositions and method of treatment of infections caused by multiple antibiotic-resistant organisms” (Eli Lilly and Company, priority 1981, dated 1984)
